Experimental data published in PubChem BioAssay AID1259407 (Chemical Carcinogenesis Research Information System (CCRIS), 2018).
Calls of active or inactive are those of the source. How the calls were made is not given here.

Test system: CCRIS mutagenicity, Ames/micronucleus/aberration tests
Experiment: CCRIS mutagenicity studies
[1] = Test System: AMES SALMONELLA TYPHIMURIUM, Strain/Indicator: TA100, Metabolic Activation: NONE, Method: STANDARD PLATE
[2] = Test System: AMES SALMONELLA TYPHIMURIUM, Strain/Indicator: TA98, Metabolic Activation: NONE, Method: STANDARD PLATE

## C/C=C1/C[C@@H](C)[C@@](C)(O)C(=O)OCC2=CCN3CC[C@@H](OC1=O)[C@@H]23
Test System: AMES SALMONELLA TYPHIMURIUM, Strain/Indicator: TA100, Metabolic Activation: HAMSTER, LIVER, S-9, PCB, Method: PREINCUBATION
  mutagenic call: inactive; negative
Test System: AMES SALMONELLA TYPHIMURIUM, Strain/Indicator: TA100, Metabolic Activation: RAT, LIVER, S-9, PCB, Method: PREINCUBATION
  mutagenic call: inactive; negative
Test System: AMES SALMONELLA TYPHIMURIUM, Strain/Indicator: TA100, Metabolic Activation: RAT, LIVER, S-9, SODIUM PHENOBARBITAL AND BETA-NAPHTHOFLAVONE, Method: PREINCUBATION
  mutagenic call: inactive; negative
Test System: UDS RAT HEPATOCYTES, Strain/Indicator: THY INCORP, Metabolic Activation: NONE, Method: AUTORADIOGRAPHY
  mutagenic call: active; positive

## ClN1C2c3ccccc3-c3ccccc3C21 (centres undefined)
[1]
  mutagenic call: active; positive
Test System: CHINESE HAMSTER V-79, Strain/Indicator: V-79/6-THIOGUANINE, Metabolic Activation: NONE, Method: STANDARD PLATE
  mutagenic call: active; positive

## CC(=O)Nc1cc(N(CCOC(C)=O)CCOC(C)=O)ccc1N=Nc1ccc([N+](=O)[O-])cc1Cl
End Point: IN VITRO CHROMOSOMAL ABERRATIONS, Test System: CHL CELLS, Metabolic Activation: NONE
  mutagenic call: inactive; negative
End Point: IN VITRO CHROMOSOMAL ABERRATIONS, Test System: CHL CELLS, Metabolic Activation: RAT, LIVER, S-9, SODIUM PHENOBARBITAL AND 5,6-BENZOFLAVONE
  mutagenic call: inactive; negative

## CC(C)Nc1ccc(Nc2ccccc2)cc1
Test System: AMES SALMONELLA TYPHIMURIUM, Strain/Indicator: TA98, Metabolic Activation: HAMSTER, LIVER, S-9, AROCLOR 1254 (10%), Method: PREINCUBATION
  mutagenic call: inactive; negative
Test System: AMES SALMONELLA TYPHIMURIUM, Strain/Indicator: TA98, Metabolic Activation: NONE, Method: PREINCUBATION
  mutagenic call: inactive; negative
[2]
  mutagenic call: inactive; negative
Test System: AMES SALMONELLA TYPHIMURIUM, Strain/Indicator: TA98, Metabolic Activation: RAT LIVER S-9, PHENOBARBITAL AND BETA-NAPHTHOFLAVONE, Method: PREINCUBATION
  mutagenic call: inactive; negative
Test System: AMES SALMONELLA TYPHIMURIUM, Strain/Indicator: TA98, Metabolic Activation: RAT, LIVER, S-9, AROCLOR 1254 (10%), Method: PREINCUBATION
  mutagenic call: inactive; negative
Test System: AMES SALMONELLA TYPHIMURIUM, Strain/Indicator: TA98, Metabolic Activation: S-9, Method: STANDARD PLATE
  mutagenic call: inactive; negative
Test System: AMES SALMONELLA TYPHIMURIUM, Strain/Indicator: TA100, Metabolic Activation: HAMSTER, LIVER, S-9, AROCLOR 1254 (10%), Method: PREINCUBATION
  mutagenic call: inactive; negative
Test System: AMES SALMONELLA TYPHIMURIUM, Strain/Indicator: TA100, Metabolic Activation: NONE, Method: PREINCUBATION
  mutagenic call: inactive; negative
[1]
  mutagenic call: inactive; negative
Test System: AMES SALMONELLA TYPHIMURIUM, Strain/Indicator: TA100, Metabolic Activation: RAT LIVER S-9, PHENOBARBITAL AND BETA-NAPHTHOFLAVONE, Method: PREINCUBATION
  mutagenic call: inactive; negative
Test System: AMES SALMONELLA TYPHIMURIUM, Strain/Indicator: TA100, Metabolic Activation: RAT, LIVER, S-9, AROCLOR 1254 (10%), Method: PREINCUBATION
  mutagenic call: inactive; negative
Test System: AMES SALMONELLA TYPHIMURIUM, Strain/Indicator: TA100, Metabolic Activation: S-9, Method: STANDARD PLATE
  mutagenic call: inactive; negative
Test System: AMES SALMONELLA TYPHIMURIUM, Strain/Indicator: TA1535, Metabolic Activation: HAMSTER, LIVER, S-9, AROCLOR 1254 (10%), Method: PREINCUBATION
  mutagenic call: inactive; negative
Test System: AMES SALMONELLA TYPHIMURIUM, Strain/Indicator: TA1535, Metabolic Activation: NONE, Method: PREINCUBATION
  mutagenic call: inactive; negative
Test System: AMES SALMONELLA TYPHIMURIUM, Strain/Indicator: TA1535, Metabolic Activation: RAT LIVER S-9, PHENOBARBITAL AND BETA-NAPHTHOFLAVONE, Method: PREINCUBATION
  mutagenic call: inactive; negative
Test System: AMES SALMONELLA TYPHIMURIUM, Strain/Indicator: TA1535, Metabolic Activation: RAT, LIVER, S-9, AROCLOR 1254 (10%), Method: PREINCUBATION
  mutagenic call: inactive; negative
Test System: AMES SALMONELLA TYPHIMURIUM, Strain/Indicator: TA1537, Metabolic Activation: HAMSTER, LIVER, S-9, AROCLOR 1254 (10%), Method: PREINCUBATION
  mutagenic call: inactive; negative
Test System: AMES SALMONELLA TYPHIMURIUM, Strain/Indicator: TA1537, Metabolic Activation: NONE, Method: PREINCUBATION
  mutagenic call: inactive; negative
Test System: AMES SALMONELLA TYPHIMURIUM, Strain/Indicator: TA1537, Metabolic Activation: RAT LIVER S-9, PHENOBARBITAL AND BETA-NAPHTHOFLAVONE, Method: PREINCUBATION
  mutagenic call: inactive; negative
Test System: AMES SALMONELLA TYPHIMURIUM, Strain/Indicator: TA1537, Metabolic Activation: RAT, LIVER, S-9, AROCLOR 1254 (10%), Method: PREINCUBATION
  mutagenic call: inactive; negative
Test System: AMES SALMONELLA TYPHIMURIUM, Strain/Indicator: TA1538, Metabolic Activation: NONE, Method: PREINCUBATION
  mutagenic call: inactive; negative
Test System: AMES SALMONELLA TYPHIMURIUM, Strain/Indicator: TA1538, Metabolic Activation: RAT LIVER S-9, PHENOBARBITAL AND BETA-NAPHTHOFLAVONE, Method: PREINCUBATION
  mutagenic call: inactive; negative
Test System: E.COLI, Strain/Indicator: WP2UVRA, Metabolic Activation: NONE, Method: PREINCUBATION
  mutagenic call: inactive; negative
Test System: E.COLI, Strain/Indicator: WP2UVRA, Metabolic Activation: RAT LIVER S-9, PHENOBARBITAL AND BETA-NAPHTHOFLAVONE, Method: PREINCUBATION
  mutagenic call: inactive; negative

## O=[N+]([O-])c1ccc(-c2nc3n(c2[N+](=O)[O-])CCS3)cc1
[2]
  mutagenic call: active; positive
[1]
  mutagenic call: active; positive
Test System: AMES SALMONELLA TYPHIMURIUM, Strain/Indicator: TA1535, Metabolic Activation: NONE, Method: STANDARD PLATE
  mutagenic call: inactive; negative
Test System: AMES SALMONELLA TYPHIMURIUM, Strain/Indicator: TA1537, Metabolic Activation: NONE, Method: STANDARD PLATE
  mutagenic call: inactive; negative
Test System: AMES SALMONELLA TYPHIMURIUM, Strain/Indicator: TA1538, Metabolic Activation: NONE, Method: STANDARD PLATE
  mutagenic call: active; positive

## Nc1c(N=Nc2ccc(S(=O)(=O)CCOS(=O)(=O)O)cc2)c(S(=O)(=O)O)cc2cc(S(=O)(=O)O)c(N=Nc3ccc(S(=O)(=O)CCOS(=O)(=O)O)cc3)c(O)c12
Test System: Ames Salmonella typhimurium, Strain/Indicator: TA98, Metabolic Activation: None, Method: Preincubation
  mutagenic call: inactive; negative
Test System: Ames Salmonella typhimurium, Strain/Indicator: TA98, Metabolic Activation: Rat, Liver, S-9, Aroclor 1254, Method: Preincubation
  mutagenic call: inactive; negative
Test System: Ames Salmonella typhimurium, Strain/Indicator: TA100, Metabolic Activation: None, Method: Preincubation
  mutagenic call: inactive; negative
Test System: Ames Salmonella typhimurium, Strain/Indicator: TA100, Metabolic Activation: Rat, Liver, S-9, Aroclor 1254, Method: Preincubation
  mutagenic call: inactive; negative
Test System: Ames Salmonella typhimurium, Strain/Indicator: TA102, Metabolic Activation: None, Method: Preincubation
  mutagenic call: inactive; negative
Test System: Ames Salmonella typhimurium, Strain/Indicator: TA102, Metabolic Activation: Rat, Liver, S-9, Aroclor 1254, Method: Preincubation
  mutagenic call: inactive; negative
Test System: Ames Salmonella typhimurium, Strain/Indicator: TA1535, Metabolic Activation: None, Method: Preincubation
  mutagenic call: inactive; negative
Test System: Ames Salmonella typhimurium, Strain/Indicator: TA1535, Metabolic Activation: Rat, Liver, S-9, Aroclor 1254, Method: Preincubation
  mutagenic call: inactive; negative

## COC(=O)N[C@H]1[C@H](O[C@H]2[C@H](O)[C@@H](N)[C@H](O[C@H]3[C@H](O)[C@@H](N)[C@H](O)O[C@@H]3CO)O[C@@H]2CO)O[C@H](CO)[C@@H](O[C@@H]2O[C@H](CO)[C@@H](O[C@@H]3O[C@H](CO)[C@@H](O[C@@H]4O[C@H](CO)[C@@H](O[C@@H]5O[C@H](CO)[C@@H](O[C@@H]6O[C@H](CO)[C@@H](O[C@@H]7O[C@H](CO)[C@@H](O)[C@H](O)[C@H]7N)[C@H](O)[C@H]6N)[C@H](O)[C@H]5N)[C@H](O)[C@H]4N)[C@H](O)[C@H]3N)[C@H](O)[C@H]2N)[C@@H]1O
End Point: IN VIVO CHROMOSOMAL ABERRATIONS, Test System: BONE MARROW CELLS (LYMPHOCYTES), Species: MOUSE, Strain/Sex: ICR/MALE, Route: DRINKING WATER
  mutagenic call: inactive; negative
End Point: IN VIVO CHROMOSOMAL ABERRATIONS, Test System: BONE MARROW, Species: MOUSE, Strain/Sex: ICR/MALE, Route: DRINKING WATER
  mutagenic call: inactive; negative
End Point: IN VIVO CHROMOSOMAL ABERRATIONS, Test System: BONE MARROW, Species: MOUSE, Strain/Sex: ICR/PARENT, F1, F2, F3 GENERATIONS, Strain/Sex: ICR/PARENT, F1, F2, F3 GENERATIONS, Route: DRINKING WATER
  mutagenic call: inactive; negative in all generations
End Point: IN VIVO MICRONUCLEUS, Test System: BONE MARROW POLYCHROMATIC ERYTHROCYTES, Species: MOUSE, Strain/Sex: ICR/MALE, Route: DRINKING WATER
  mutagenic call: inactive; negative
